According to patent US9006278B2, “Controlled release systems of pluribioactive antifungal drugs and applications thereof” (Poly-Med, Inc., priority 2010, dated 2015):

What was measured:
Type in all cases: cell-based
[1] = system: SKOV3 ovarian cancer cells; experiment: Cell viability, CellTiter 96 AQueous One (SKOV3); settings: Homo sapiens, SK-OV-3, 48 h, 2 days
Protocol: (§1) To examine the effect of miconazole and ketoconazole on cancer cells (SKOV3, OVCAR3, and MCF7) and vascular cells (human aortic smooth muscle and umbilical vein endothelium), each cell type was seeded in separate 24-well plates at a density of approximately 50,000 to 100,000 cells/cm^2. After incubation under standard cell culture conditions (that is, a 37° C., humidified, 5% CO2 environment) for approximately 24 hours, media was aspirated from each well, and replaced with the appropriate treatments. Miconazole or ketoconazole was dissolved in ethanol to create a stock solution. […] The same volume of ethanol was added to control wells, but no drug was present. Cells were further incubated for 2 days. At that time, cell viability was measured using a commercially available kit, according to manufacturer instructions (CellTiter 96® AQueous One Solution Cell Proliferation Assay, Promega). All samples were prepared in triplicate. Percent inhibition was then calculated using the absorbance values.

MCF7 breast cancer cells = experiment: Cell viability, CellTiter 96 AQueous One (MCF7); settings: Homo sapiens, MCF7, 48 h, 2 days
Protocol: as §1

Staphylococcus aureus = experiment: Broth culture growth inhibition, absorbance at 600 nm (Staphylococcus aureus); settings: overnight (approx. 16 hours), read-out: % Inhibition S. aureus
Protocol: (§2) Bacterial and fungal cultures (Staphylococcus aureus and Candida albicans) were maintained according to manufacturer (ATCC) instructions. Broth was inoculated according to 0.5 McFarland standard (0.05 absorbance reading). Miconazole or ketoconazole was dissolved in ethanol to create a stock solution. Cultures were incubated overnight (approximately 16 hours), at which time relative absorbance was recorded for each sample using a spectrophotometer (600 nm wavelength). Absorbance values were then used to calculate percent inhibition.

Candida albicans = experiment: Broth culture growth inhibition, absorbance at 600 nm (Candida albicans); settings: overnight (approx. 16 hours), read-out: % Inhibition C. albicans
Protocol: as §2

[2] = system: umbilical vein endothelium cells; experiment: Cell viability, CellTiter 96 AQueous One (endothelium); settings: Homo sapiens, 48 h, 2 days, read-out: % Inhibition Endothelial
Protocol: as §1

[3] = system: OVCAR3 ovarian cancer cells; experiment: Cell viability, CellTiter 96 AQueous One (OVCAR3); settings: Homo sapiens, OVCAR-3, 48 h, 2 days
Protocol: as §1

[4] = system: human aortic smooth muscle cells; experiment: Cell viability, CellTiter 96 AQueous One (smooth muscle); settings: 48 h, 2 days
Protocol: as §1

SMILES: CC(=O)N1CCN(c2ccc(OCC3COC(Cn4ccnc4)(c4ccc(Cl)cc4Cl)O3)cc2)CC1 (stereo not shown) [Ketoconazole, ketoconazole]
- inhibition at 40 µg/mL ([1]; 40 μg/mL): 0%
- inhibition at 80 µg/mL ([1]; 80 μg/mL): 51%
- inhibition at 40 µg/mL (MCF7 breast cancer cells; 40 μg/mL): 58%
- inhibition at 80 µg/mL (MCF7 breast cancer cells; 80 μg/mL): 50%
- inhibition at 40 µg/mL (Staphylococcus aureus; 40 μg/mL): 32.7%
- inhibition at 80 µg/mL (Staphylococcus aureus; 80 μg/mL): 67.6%
- inhibition at 40 µg/mL (Candida albicans; 40 μg/mL): 93.8%
- inhibition at 80 µg/mL (Candida albicans; 80 μg/mL): 98.6%
- inhibition at 40 µg/mL ([2]; 40 μg/mL): 16%
- inhibition at 80 µg/mL ([2]; 80 μg/mL): 38%
- inhibition at 40 µg/mL ([3]; 40 μg/mL): 0%
- inhibition at 80 µg/mL ([3]; 80 μg/mL): 57%
- inhibition at 40 µg/mL ([4]; 40 μg/mL): 31%
- inhibition at 80 µg/mL ([4]; 80 μg/mL): 68%

SMILES: Clc1ccc(COC(Cn2ccnc2)c2ccc(Cl)cc2Cl)c(Cl)c1 (stereo not shown) [Miconazole, miconazole]
- inhibition at 20 µg/mL ([1]; 20 μg/mL): 13%
- inhibition at 60 µg/mL ([1]; 60 μg/mL): 61%
- inhibition at 20 µg/mL (MCF7 breast cancer cells; 20 μg/mL): 19%
- inhibition at 60 µg/mL (MCF7 breast cancer cells; 60 μg/mL): 55%
- inhibition at 20 µg/mL (Staphylococcus aureus; 20 μg/mL): 76.7%
- inhibition at 60 µg/mL (Staphylococcus aureus; 60 μg/mL): 65%
- inhibition at 20 µg/mL (Candida albicans; 20 μg/mL): 98.3%
- inhibition at 60 µg/mL (Candida albicans; 60 μg/mL): 73.2%
- inhibition at 20 µg/mL ([2]; 20 μg/mL): 18%
- inhibition at 60 µg/mL ([2]; 60 μg/mL): 58%
- inhibition at 20 µg/mL ([3]; 20 μg/mL): 19%
- inhibition at 60 µg/mL ([3]; 60 μg/mL): 57%
- inhibition at 20 µg/mL ([4]; 20 μg/mL): 58%
- inhibition at 60 µg/mL ([4]; 60 μg/mL): 84%
